The values that follow are results of earlier work, collected in article PMC4060611 (Inorganic Chemistry, 2014).

Where a name gives a salt, the structure may show the parent alone. Read-outs that look alike come from different tables or passages of the source.

The conditions of data set [1]: 0 to 500 μM, 72 h incubation.
Assay in data set [2]: not given
The source holds these as a separate data set.

As for `NC(=O)CN1CCN(CC(N)=O)CCN(CC(N)=O)CCN(CC(N)=O)CC1.[Eu+3]` [[Eu-DOTAm]^3+], the “cell association relative to [Eu-DOTA]−” value is recorded as 5 times.

In the case of “europium compound of 1,4,7,10-tetraazacyclododecane-1,4,7,10-tetraacetic acid [[Eu-DOTA]^−]”, the cellular accumulation result is reported as “negligible”. Moreover, the “effect on cell viability” value in data set [1] is listed as “negligible effect”.

As for `CCN1C(=CC=CC=CC2=[N+](CCCCCC(=O)O)c3ccc(S(=O)(=O)O)cc3C2(C)C)C(C)(C)c2cc(S(=O)(=O)[O-])ccc21` [Cy5], the quantum yield in data set [2] (in PBS) was 30%.

For the molecule `C=C[C@H]1C[N@@]2CC[C@H]1C[C@H]2[C@H](O)c1ccnc2ccc(OC)cc12` [quinine sulfate], the “quantum yield Φr” value in data set [2] (in 0.1 M sulfuric acid) is 0.577.

As for `CCN1C(=CC=CC2=[N+](CCCCCC(=O)O)c3ccc(S(=O)(=O)O)cc3C2(C)C)C(C)(C)c2cc(S(=O)(=O)[O-])ccc21` [Cy3], the quantum yield in data set [2] (in PBS) is on record as 4%.

Consider Texas Red, for which the quantum yield in data set [2] (in water) is recorded as 30%.
